Results as given in US11058690B2, “Use of cytochrome bc1 complex inhibitor in preparing pharmaceutical composition” (BEIJING WEILANZHIYUAN MEDICAL TECHNOLOGY CO., LTD., priority 2017, dated 2021).
Where two headings read alike, the source gives them in different places.

Experiments:
[1] = system: rat uterine smooth muscle; test: contraction of isolated rat uterine smooth muscle strips induced by PGF2α; type: cell-based; conditions: for IC50: read-out: IC50, inhibition of uterine smooth muscle contraction; for inhibitory effect on PGF2α-induced contraction: amplitude and frequency
Description: Female healthy Wistar rats weighing 230-270 g were used in the experiment. At 2 days before the experiment, Diethylstilbestrol suspension was injected intraperitoneally once at 0.1 mg/kg, resulting in artificial estrus. The rats were sacrificed by cervical dislocation, and the uterus was removed by laparotomy and immediately placed in a glass plate containing Tyrode's solution. Connective and adipose tissues attached to the uterine wall were carefully peeled off, the uterus was cut open along the mesangial line and laid flat on the bottom of the glass plate, then one side of the uterus was divided into left and right uterine muscle strips by using a surgical blade along the uterine contraction band running along smooth muscle, the two ends of the uterine muscle strip on one side were ligated with wires respectively, and then transferred into a nutrient tube which was aerated with oxygen and filled with 5 ml of Tyrode's solution and preheated to 37.2±0.5° C., with a lower end fixed and an upper end connected with a tension sensor. The materials stood for 20-30 minutes, liquid was changed 2-3 times, then the uterus was given a load of 1 g and kept for 30-60 minutes until the uterus had regular contraction waves, 40 mM KCL solution was provided for 10 minutes, and the function of the uterine muscle strips was evaluated. Then the muscle strips were relaxed and washed 2-3 times with Tyrode's solution, then let stand for 30 minutes; after standing, the uterine muscle strips were given a load of 1 g and kept for 30-60 minutes, and the administration and the observation were carried out after the uterine muscle strips contracted stably (i.e. regular contraction waveforms appear in a microcomputer display screen), the changes of relevant data such as contraction tension, amplitude and area under the contraction curve of the uterine smooth muscle strips were recorded, and the drug given was evaluated. During the experiment, the working temperature of the Tyrode's solution was kept at 37.2±0.5° C., and oxygen was continuously aerated into the nutrient tube with 1-2 bubbles per second. A cumulative dosing method was adopted, and 5 μl was administered each time, from low concentration to high concentration. A final drug concentration refers to the concentration of the drug dissolved in 5 ml Tyrode's solution in a […] tube.
Fluacrypyrim (FAPM), the first strobilurin acaricide developed by BASF SE and Nippon Soda Co., Ltd., is a Qo site inhibitor of the mitochondrial cytochrome bc1 complex. […] The area under the smooth muscle contraction curve was calculated before drug intervention and 10 minutes after different doses of drug intervention respectively. A drug dose-effect curve was plotted by taking the area under the smooth muscle contraction curve caused by PGF2α as 100%, to calculate the median effective dose (IC50 value) of the drug for inhibiting uterine smooth muscle contraction.

[2] = system: Kunming male mice; test: acetic acid writhing test on mice; type: in vivo, mouse; conditions: for curative effect compared with indomethacin: 100 mg/Kg versus indomethacin 50 mg/Kg; for writhe starting time (reaction latency) compared with control group: FAPM and trifloxystrobin intraperitoneal, azoxystrobin intragastric
[3] = system: Mouse mononuclear macrophage RAW 264.7; test: nitric oxide production by LPS-stimulated macrophages (Griess assay); type: cell-based; conditions: for Maximum inhibition rate: in %; for IC50: read-out: IC50, NO production
[4] = system: Kunming female mice; test: oxytocin-induced dysmenorrhea model in mice (diethylstilbestrol sensitization); type: in vivo, mouse; conditions: for Writhe starting time / Number of writhing times: Table 9; for Number of writhing times: within 30 min
Description: (§1) A mouse dysmenorrhea model was established with reference to Yang L., Cao Z., Yu B. & Chai C. An in vivo mouse model of primary dysmenorrhea. Exp Anim. 2015, August 64, 295-303. Adult healthy Kunming female mice were randomly grouped, 10 mice in each group. Experimental mice were intragastrically given diethylstilbestrol 0.2 mg daily for 12 days. Different kinds and dosages of the inhibitors of the cytochrome bc1 complex were given intraperitoneally or intragastrically 30 min after the last administration. Indometacin (50 mg/kg) was injected intraperitoneally as positive control, PGF2α (1.3 mg/kg) or oxytocin (20 U/kg) was injected intraperitoneally 1 h later, and the writhe starting time (reaction latency) and the number of writhing times within 30 min were observed and recorded.

[5] = system: Kunming female mice; test: PGF2α-induced dysmenorrhea model in mice (diethylstilbestrol sensitization); type: in vivo, mouse; conditions: for Writhe starting time / Number of writhing times: Table 8; for Number of writhing times: within 30 min
Description: as §1

[6] = Rattus norvegicus, 10 min, PGF2α (450 nM), area under the contraction curve 10 minutes after drug
[7] = Table 6, 200 mg/Kg intragastric
[8] = Table 6, 200 mg/Kg intragastric, within 30 min
[9] = PGF2α (450 nM), area under the contraction curve 10 minutes after drug
[10] = Mus musculus, RAW264.7, LPS 1 μg/mL, 24 h
[11] = 50 mg/Kg versus indomethacin 50 mg/Kg

CC(C)c1c(C(=O)Nc2ccccc2)c(-c2ccccc2)c(-c2ccc(F)cc2)n1CC[C@@H](O)C[C@@H](O)CC(=O)O [atorvastatin, reference compound] showed an IC50 [1, 6] of 8440 ± 700 nM.

Work on O=C1C(O)=C([C@H]2CC[C@H](c3ccc(Cl)cc3)CC2)C(=O)c2ccccc21 [atovaquone, reference compound] yielded an IC50 [1, 6] of 8440 ± 700 nM.

In the case of CNC(=O)/C(=N/OC)c1ccccc1COc1cc(C)ccc1C [Dimoxystrobin, dimoxystrobin], the “Writhe starting time” value ([2]; 200 mg/Kg intragastric) is reported as “not prolonged”, the “effect on number of writhing times” value ([2]; 200 mg/Kg intragastric) is reported as “obviously inhibited” and the Writhe starting time [2, 7] is reported as 3.3 ± 0.5 min. The “Number of writhing times” value [2, 8] was 31.5 ± 4.7 and the IC50 [1, 9] was 1650 ± 120 nM.

CON=C(C(=O)OC)c1ccccc1CON=C(C)c1cccc(C(F)(F)F)c1 [trifloxystrobin] was tested, and the “curative effect compared with indomethacin” value [2] was “equivalent to indomethacin at 50 mg/Kg”, the “writhe starting time (reaction latency) compared with control group” value [2] was “significantly prolonged” and the “Number of writhing times” value ([2]; Table 4, 50 mg/Kg intraperitoneal, within 30 min) was 22.3 ± 1.2. For the same compound, the Writhe starting time ([2]; ip, 50 mg/kg) was 3.3 ± 0.5 min, the Writhe starting time ([2]; ip, 100 mg/kg) was 4.3 ± 1.6 min and the “Number of writhing times” value ([2]; ip, 100 mg/kg, 0.5 h) was 14.0 ± 1.7. The Writhe starting time ([2]; ip, 200 mg/kg) was 8.5 ± 2.4 min, the “Number of writhing times” value ([2]; ip, 200 mg/kg, 0.5 h) was 4.0 ± 2.3 and the IC50 [1, 6] was 1770 ± 50 nM. It also gave a Maximum inhibition rate ([3]; LPS 1 μg/mL, 24 h) of 90.7 ± 2.9% and an IC50 [3, 10] of 640 ± 210 nM.

With CO/N=C(/C1=NOCCO1)c1ccccc1Oc1ncnc(Oc2ccccc2Cl)c1F [Fluoxastrobin, fluoxastrobin] the IC50 [1, 6] was 2630 ± 300 nM.

With CO/N=C(/C(=O)OC)c1ccccc1COc1ccccc1C [kresoxim-methyl] the “Writhe starting time” value ([2]; 200 mg/Kg intragastric) was “not prolonged”, the “effect on number of writhing times” value ([2]; 200 mg/Kg intragastric) was “obviously inhibited” and the Writhe starting time [2, 7] was 3.4 ± 1.0 min. The “Number of writhing times” value [2, 8] was 33.0 ± 2.9, the IC50 [1, 6] was 4080 ± 290 nM and the Maximum inhibition rate ([3]; LPS 1 μg/mL, 24 h) was 88.7 ± 5.6%. The IC50 [3, 10] was 2770 ± 690 nM.

In the case of CO/C=C(/C(=O)OC)c1ccccc1Oc1cc(Oc2ccccc2C#N)ncn1 [azoxystrobin], the “curative effect compared with indomethacin” value [2] is reported as “equivalent to indomethacin at 50 mg/Kg”, the “writhe starting time (reaction latency) compared with control group” value [2] is reported as “not significantly prolonged” and the Writhe starting time ([2]; Table 5, 50 mg/Kg intragastric) is reported as 3.2 ± 1.1 min. For the same compound, the “Number of writhing times” value ([2]; Table 5, 50 mg/Kg intragastric, within 30 min) was 31.9 ± 3.1, the Writhe starting time ([2]; Table 5, 100 mg/Kg intragastric) was 3.4 ± 1.8 min and the “Number of writhing times” value ([2]; Table 5, 100 mg/Kg intragastric, within 30 min) was 24.9 ± 4.6. For the same compound, the Writhe starting time ([2]; Table 5, 200 mg/Kg intragastric) was 3.7 ± 1.5 min, the “Number of writhing times” value ([2]; Table 5, 200 mg/Kg intragastric, within 30 min) was 21.6 ± 3.5 and the Writhe starting time ([2]; Table 5, 400 mg/Kg intragastric) was 3.4 ± 1.2 min. The “Number of writhing times” value ([2]; Table 5, 400 mg/Kg intragastric, within 30 min) was 12.4 ± 4.2, the “curative effect compared with indomethacin” value [4, 11] was “equivalent to 50 mg/Kg of indomethacin” and the Writhe starting time ([4]; 50 mg/Kg intragastric) was 3.3 ± 1.5. The “Number of writhing times” value ([4]; 50 mg/Kg intragastric) was 24.2 ± 4.1, the Writhe starting time ([4]; 100 mg/Kg intragastric) was 3.9 ± 1.5 and the “Number of writhing times” value ([4]; 100 mg/Kg intragastric) was 14.2 ± 2.2. For the same compound, the Writhe starting time ([4]; 200 mg/Kg intragastric) was 3.3 ± 1.3, the “Number of writhing times” value ([4]; 200 mg/Kg intragastric) was 7.6 ± 1.9 and the “effect on number of writhing times” value ([4]; intragastric 50, 100 and 200 mg/Kg) was “in a dose-dependent manner”. The “curative effect compared with indomethacin” value [5, 11] was “equivalent to indomethacin at 50 mg/Kg”, the “effect on number of writhing times” value ([5]; FAPM intraperitoneal, azoxystrobin intragastric, 50, 100 and 200 mg/Kg one hour before) was “in a dose-dependent manner” and the Writhe starting time ([5]; 50 mg/Kg intragastric) was 2.1 ± 1.0 min. For the same compound, the “Number of writhing times” value ([5]; 50 mg/Kg intragastric) was 17.7 ± 1.9, the Writhe starting time ([5]; 100 mg/Kg intragastric) was 2.0 ± 1.1 min and the “Number of writhing times” value ([5]; 100 mg/Kg intragastric) was 12.8 ± 2.4. The Writhe starting time ([5]; 200 mg/Kg intragastric) was 2.2 ± 0.8 min, the “Number of writhing times” value ([5]; 200 mg/Kg intragastric) was 10.3 ± 1.3 and the IC50 [1, 9] was 1700 ± 120 nM. For the same compound, the Maximum inhibition rate ([3]; LPS 1 μg/mL, 24 h) was 86.7 ± 4.3% and the IC50 ([3]; LPS 1 μg/mL, 24 h) was 1890 ± 350 nM.

For CO/C=C(/C(=O)OC)c1ccccc1COc1cccc(C(F)(F)F)n1 [Picoxystrobin, picoxystrobin], the “Writhe starting time” value ([2]; 200 mg/Kg intragastric) was “not prolonged”, the “effect on number of writhing times” value ([2]; 200 mg/Kg intragastric) was “obviously inhibited” and the Writhe starting time [2, 7] was 3.3 ± 1.0 min. The “Number of writhing times” value [2, 8] was 29.3 ± 4.7 and the IC50 [1, 9] was 1200 ± 20 nM.

In the case of C/C=C(C)/C=C/C=C/[C@H](OC)[C@@H](C)[C@@H](OC)[C@@H](C)CCc1oc2c(O)c(OC)cc(OC)c2c(=O)c1C [Stigmatellin, reference compound], the “inhibitory effect on PGF2α-induced contraction” value ([1]; PGF2α (450 nM)) is reported as “strongest inhibitory effect”, the “IC50 values (level in words)” value ([1]; PGF2α-induced) is reported as “nanomolar level” and the IC50 ([1]; Rattus norvegicus, PGF2α-induced) is reported as 89.9 nM. The Maximum inhibition rate ([3]; LPS 1 μg/mL, 24 h) was 88.3±3.9% and the IC50 ([3]; Mus musculus, RAW264.7, 24 h) was 6.24 ± 1.15 nM.

For CO/C(=C/C(N)=O)[C@H](C)[C@H](/C=C/c1csc(-c2csc([C@@H](C)/C=C/C=C/C(C)C)n2)n1)OC [Myxothiazol, myxothiazol, reference compound], the “inhibitory effect on PGF2α-induced contraction” value ([1]; PGF2α (450 nM)) was “strongest inhibitory effect”, the “IC50 values (level in words)” value ([1]; PGF2α-induced) was “nanomolar level” and the IC50 ([1]; PGF2α-induced) was 215 nM. For the same compound, the Maximum inhibition rate ([3]; LPS 1 μg/mL, 24 h) was 95% and the IC50 ([3]; LPS 1 μg/mL, 24 h) was 2.8 nM.

COC(=O)N(OC)c1ccccc1COc1ccn(-c2ccc(Cl)cc2)n1 [Pyraclostrobin, pyraclostrobin] was tested, and the IC50 [1, 6] was 1050 ± 10 nM.
